In patent publication US20040115284A1, “Use of gamma-GT inhibitors for the treatment of degenerative diseases” (priority 2001, published 2004):
Marks after values point to notes of the source that are not given here.

Experiments:
SOD mRNA = SOD mRNA levels by quantitative RT-PCR in Mpv17−/− cells; assay type: cell-based, mouse; conditions: Mpv17−/− cells with acivicin (γ-GT inhibition), FIG. 2B; β-actin reference
From the text: (§1) Kidneys from background mice (CFW×Balb/c) and transgenic homozygous Mpv17-/- mice ([…]. Noda, D. A. Gray, A. H. Sharpe and R. Jaenisch (1990), Cell, 62, pp. 425434) were obtained at an age of 7 to 9 months and frozen in liquid nitrogen. LUSVX cells (SV40 immortalised fibroblasts from the lungs of Mpv17-/- mice), and NIX1 5 cells (Mpv+/+ cells derived from LUSVX cells by stable transfection of an expression construct for the human Mpv17 cDNA) (A. Reuter. […]. Tuckermann, […]. Wagner, […]. Meyer zum Gottesberge, P. Angel and […] (1998), Molecular Biology of the Cell, 9, pp. 1675-1682) were grown in DMEM including 10% fetal calf serum (FCS) and 1 μg/ml puromycin (NIX15 cultures) at 6.5% CO2 Cells were harvested by trypsinisation and each 5×10^6 cells were washed in 1.5 ml of phosphate-buffered saline (PBS) before freezing the pellet in liquid nitrogen. […] Noda, M. Kohno, A. Mori and L. […] Kidneys and cells were stored frozen at -80° C. mRNA levels were also measured. In particular, levels of mRNA were determined by quantitative RT-PCR. […] Amplified mRNA was separated on 1.5% agarose gels in Tris borate buffer (F. M. Ausubel (1995) Short protocols in molecular biology: a compendium of methods from current protocols in molecular biology. Wiley Press, New York) visualized with vista green (Amersham, Freiburg, FRG) and quantified with a FLA2000 Imager (FUJI).

γ-GT = target: T1, γ-GT (Rattus norvegicus, UniProt P07314); conditions: short-term ischemia of rat kidney; Cutrin et al. 2000; cited from earlier work
T1 construct: oxidation damage during short-term ischemia of rat kidney

Glutathione Peroxidase = test: Glutathione peroxidase activity in Mpv17 −/− cells (LUSVX) grown in presence of MnTBAP or acivicin; assay type: cell-based, mouse
From the text: (§2) Kidneys from background mice (CFW×Balb/c) and transgenic homozygous Mpv17−/− mice (H. Weiher, T. Noda, D. A. Gray, A. H. Sharpe and R. Jaenisch (1990), Cell, 62, pp. 425434) were obtained at an age of 7 to 9 months and frozen in liquid nitrogen. LUSVX cells (SV40 immortalised fibroblasts from the lungs of Mpv17−/− mice), and NIX1 5 cells (Mpv+/+ cells derived from LUSVX cells by stable transfection of an expression construct for the human Mpv17 cDNA) (A. Reuter. A. Nestl, R. M. Zwacka, J. Tuckermann, R. Waldherr, E. M. Wagner, M. Hoyhtya, A. M. Meyer zum Gottesberge, P. Angel and H. Weiher (1998), Molecular Biology of the Cell, 9, pp. 1675-1682) were grown in DMEM including 10% fetal calf serum (FCS) and 1 μg/ml puromycin (NIX15 cultures) at 6.5% CO2 Cells were harvested by trypsinisation and each 5×10^6 cells were washed in 1.5 ml of phosphate-buffered saline (PBS) before freezing the pellet in liquid nitrogen. Where indicated, Mn(III)tetrakis(4-benzoic acid)porphyrin (MnTBAP), final concentration 10 μM (Y. Noda, M. Kohno, A. Mori and L. Packer (1999), Methods in Enzymology, 299, pp. 28-34) (Calbiochem, Schwalbach, FRG), or the γ-GT inhibitor acivicin (AT-125), final concentration 50 μM (Sigma, Deisenhofen, FRG) were added in DMEM/10% FCS 18 h before harvesting the cells. Kidneys and cells were stored frozen at −80° C.
Cell fractions were prepared by differential centrifugation from 20% tissue and cell homogenates (w/v) in 10 mM potassium phosphate buffer, pH 7.0, containing 0.25 M sucrose, 150 mM potassium chloride, 1 mM EDTA, 2 mM dithiothreitol, and 50 μM phenylmethylsulfonyl fluoride. Enzyme activities were determined at 25° C.: catalase in the 25,000×g (10 min) pellet H. E. Aebi (1983), In Methods of Enzymatic Analysis (ed. H. U. Bergmeyer), Verlag Chemie, Weinheim, pp. 273-276); glutathione peroxidase (GPx) (R. A. Lawrence and R. F. Burk (1976), Biochemical Biophysical Research Communications, 71, pp. 952-958), GSSG reductase (Goldberg, D. M. S. R. F. (1983) In Methods of Enzymatic Analysis (ed. H. U. Bergmeyer) Verlag Chemie, Weinheim, pp. 258-265), glutathione transferase (GST) with 1-chloro-2,4-dinitrobenzene (CDNB) W. H. Habig, M. J. Pabst and W. B. Jakoby (1974), Journal Biological Chemistry, 249, pp. 7130-7139, and superoxide dismutase (SOD) (S. Marklund and G. Marklund (1974), European Journal of Biochemistry, 47, pp. 469-474) in the 105,000×g (45 min) supernatant; γ-glutamyl transpeptidase (γ-GT) ) (S. Marklund and G. Marklund (1974), European Journal of Biochemistry, 47, pp. 469-474) in the resuspended 105,000×g pellet containing 1% Triton X-100. Protein was measured by the method of Bradford using bovine serum albumin as standard (M. M. Bradford (1976), Analytical Biochemistry, 72, pp. 248-254).

pGPx mRNA = pGPx mRNA level by quantitative RT-PCR in Mpv17−/− cells; assay type: cell-based, mouse; conditions: Mpv17−/− cells with acivicin (γ-GT inhibition), FIG. 2B; β-actin reference
From the text: as §1

[1] = target: T2, γ-Glutamyl Transpeptidase (Mus musculus, UniProt Q60928); test: γ-glutamyl transpeptidase activity in Mpv17 −/− cells (LUSVX) grown in presence of MnTBAP or acivicin; assay type: cell-based
T2 construct: in the resuspended 105,000×g pellet containing 1% Triton X-100; endogenous in cells; host or cells: LUSVX cells (SV40-immortalised lung fibroblasts from Mpv17−/− mice)
From the text: as §2
Cell fractions were prepared by differential centrifugation from 20% tissue and cell homogenates (w/v) in 10 mM potassium phosphate buffer, pH 7.0, containing 0.25 M sucrose, 150 mM potassium chloride, 1 mM EDTA, 2 mM dithiothreitol, and 50 μM phenylmethylsulfonyl fluoride. […] Protein was measured by the method of Bradford using bovine serum albumin as standard (M. M. Bradford (1976), Analytical Biochemistry, 72, pp. 248-254).

[2] = LUSVX cells, MnTBAP 10 μM or acivicin 50 μM added 18 h before harvesting, means ± SEM (n = 3)
[3] = Mpv17−/− cells (LUSVX) grown in the presence of MnTBAP

T2 sequence (Q60928 1-379 limits assumed): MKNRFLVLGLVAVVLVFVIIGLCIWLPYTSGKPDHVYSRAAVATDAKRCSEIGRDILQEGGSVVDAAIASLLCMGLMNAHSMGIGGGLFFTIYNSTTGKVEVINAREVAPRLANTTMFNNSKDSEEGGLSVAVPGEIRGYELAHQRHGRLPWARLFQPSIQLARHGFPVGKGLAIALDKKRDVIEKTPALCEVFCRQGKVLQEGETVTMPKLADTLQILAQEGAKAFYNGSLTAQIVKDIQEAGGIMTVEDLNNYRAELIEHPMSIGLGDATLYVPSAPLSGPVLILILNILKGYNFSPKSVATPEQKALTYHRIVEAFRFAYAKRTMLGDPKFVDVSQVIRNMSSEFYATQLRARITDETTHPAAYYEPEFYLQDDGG
T2 sequence (Q60928 380-568 limits assumed): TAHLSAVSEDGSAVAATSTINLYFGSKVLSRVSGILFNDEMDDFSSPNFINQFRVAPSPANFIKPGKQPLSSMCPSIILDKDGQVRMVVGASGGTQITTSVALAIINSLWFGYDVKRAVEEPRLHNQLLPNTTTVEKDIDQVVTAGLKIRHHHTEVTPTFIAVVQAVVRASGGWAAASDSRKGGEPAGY
T1 sequence (P07314 1-379 limits assumed): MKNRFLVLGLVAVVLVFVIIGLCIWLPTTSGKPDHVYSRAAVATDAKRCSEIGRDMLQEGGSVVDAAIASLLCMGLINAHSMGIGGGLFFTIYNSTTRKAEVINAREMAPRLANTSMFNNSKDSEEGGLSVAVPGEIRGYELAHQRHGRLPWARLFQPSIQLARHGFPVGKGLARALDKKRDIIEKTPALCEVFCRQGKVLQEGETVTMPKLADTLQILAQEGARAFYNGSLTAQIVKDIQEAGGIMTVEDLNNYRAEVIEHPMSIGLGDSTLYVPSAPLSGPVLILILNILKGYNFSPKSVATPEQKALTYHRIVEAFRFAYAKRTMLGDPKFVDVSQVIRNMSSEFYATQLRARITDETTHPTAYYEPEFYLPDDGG
T1 sequence (P07314 380-568 limits assumed): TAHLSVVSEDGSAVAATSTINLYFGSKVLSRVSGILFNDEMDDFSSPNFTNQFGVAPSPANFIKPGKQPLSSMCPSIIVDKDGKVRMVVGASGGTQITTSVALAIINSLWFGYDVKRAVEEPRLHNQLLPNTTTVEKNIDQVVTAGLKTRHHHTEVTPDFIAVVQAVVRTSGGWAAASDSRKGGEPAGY

Row | SMILES | SOD mRNA levels (SOD mRNA) | oxidation damage caused by γ-GT upregulation (γ-GT) | Glutathione Peroxidase activity (Glutathione Peroxidase; [2]) | increase of GPx activity (Glutathione Peroxidase; Mpv17−/− cells grown in the presence of acivicin) | activity at 50 µM (Glutathione Peroxidase; Mus musculus, LUSVX cells, MnTBAP 10 μM or acivicin 50 μM, 18 h, relative to untreated LUSVX, read-out: Glutathione Peroxidase activity, % of controls) [%] | pGPx mRNA level (pGPx mRNA) | γ-Glutamyl Transpeptidase activity [1, 2] | γ-Glutamyl Transpeptidase activity, % of controls ([1]; LUSVX cells, MnTBAP 10 μM, 18 h, relative to untreated LUSVX) | change of γ-GT activity (in words) [1, 3] | Glutathione Peroxidase activity, % of controls (Glutathione Peroxidase; LUSVX cells, MnTBAP 10 μM or acivicin 50 μM, 18 h, relative to untreated LUSVX) | change of GPx activity (in words) (Glutathione Peroxidase; [3])
1 | N[C@H](C(=O)O)[C@@H]1CC(Cl)=NO1 [acivicin] | significant increase | inhibitable | 53.5 ± 2.0 nmol/min per mg of protein | about 1.6 fold | 162 | significant increase |  |  |  |  | 
2 | O=C(O)c1ccc(-c2c3nc(c(-c4ccc(C(=O)O)cc4)c4ccc([n-]4)c(-c4ccc(C(=O)O)cc4)c4nc(c(-c5ccc(C(=O)O)cc5)c5ccc2[n-]5)C=C4)C=C3)cc1.[Mn+3] [MnTBAP, Mn(III)tetrakis(4-benzoic acid)porphyrin] |  |  |  |  |  |  | 0.94 ± 0.03 nmol/min per mg of protein | (95%) | Neither γ-GT nor GPx activities were changed significantly | (104%)^a) | Neither γ-GT nor GPx activities were changed significantly
